Measured values reported in ChEMBL document CHEMBL1201862, “PubChem BioAssay data set” (2004).
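Tested at 5 concentrations; 48 h exposure; 96-well plates; endpoints linearly interpolated, else capped at highest concentration. At the GI50, growth is halved.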 The source made the active and inactive calls. Rule as the data show it: active = GI50 up to about 1.1 µM and inactive = higher.

How the values were obtained:
Assay in all cases: inhibition of tumour cell growth, NCI panel, 48 h
[1] = system: A498
[2] = system: ACHN
[3] = system: CAKI-1
[4] = system: HCT-116
[5] = system: Hs-578T
[6] = system: KM12
[7] = system: MDA-MB-231
[8] = system: MDA-MB-435
[9] = system: NCI-H226
[10] = system: NCI-H23
[11] = system: NCI-H522
[12] = system: NCI/ADR-RES
[13] = system: OVCAR-8
[14] = system: RPMI-8226
[15] = system: SNB-19
[16] = system: SW-620
[17] = system: U-251
[18] = system: HOP-62
[19] = system: OVCAR-3
[20] = system: SK-MEL-28

Row | Compound | GI50 [1] | GI50 [2] | GI50 [3] | GI50 [4] | GI50 [5] | GI50 [6] | GI50 [7] | GI50 [8] | GI50 [9] | GI50 [10] | GI50 [11] | GI50 [12] | GI50 [13] | GI50 [14] | GI50 [15] | GI50 [16] | GI50 [17] | GI50 [18] | GI50 [19] | GI50 [20]
1 | CC1(C)CC2(C)OC(=N)C1(C#N)C2(C#N)C#N (centres undefined) | 15.2 µM (inactive) | 7.64 µM (inactive) | 1.02 µM (active) | 7.46 µM (inactive) | 13 µM (inactive) | 16 µM (inactive) | 8.83 µM (inactive) | 11.9 µM (inactive) | > 10 µM (inactive) | 8.32 µM (inactive) | 2.44 µM (inactive) | 13 µM (inactive) | 18.2 µM (inactive) | 5.65 µM (inactive) | 16.2 µM (inactive) | 3.1 µM (inactive) | 13.6 µM (inactive) |  |  | 
2 | O=C1N(c2ccccc2)C(=S)/C(=C/c2ccc(Cl)cc2)N1c1ccc(Cl)cc1 | 79.8 µM (inactive) | 19.1 µM (inactive) | > 100 µM (inactive) | 20 µM (inactive) | 27 µM (inactive) | 52 µM (inactive) | 27 µM (inactive) | 35.6 µM (inactive) |  | 44.3 µM (inactive) | 15.9 µM (inactive) | 77.3 µM (inactive) | 33.6 µM (inactive) | 18.3 µM (inactive) | 48.4 µM (inactive) | 36.1 µM (inactive) | 28.1 µM (inactive) | 32.2 µM (inactive) | 35.2 µM (inactive) | 34.8 µM (inactive)
3 | O=C1C(Cl)=C(Cl)C(Cl)(Cl)C(Cl)C1(Cl)Cl (centres undefined) | 15.2 µM (inactive) | 29.8 µM (inactive) |  | 18.8 µM (inactive) | 21.3 µM (inactive) | 20.1 µM (inactive) | 20 µM (inactive) | 23.1 µM (inactive) |  | 21.9 µM (inactive) | 13.7 µM (inactive) | 25.3 µM (inactive) | 32.2 µM (inactive) | 19.6 µM (inactive) | 22.4 µM (inactive) | 22 µM (inactive) | 19 µM (inactive) | 23.4 µM (inactive) | 17.7 µM (inactive) | 23.5 µM (inactive)
4 | C=CC(C)CCC(C/C=C(\C)CCC=C(C)C)C(=C)CCCC(C)C (centres undefined) | > 100 µM (inactive) | > 100 µM (inactive) | > 100 µM (inactive) | > 100 µM (inactive) | > 100 µM (inactive) | > 100 µM (inactive) | > 100 µM (inactive) | > 100 µM (inactive) |  | > 100 µM (inactive) | > 100 µM (inactive) | > 100 µM (inactive) | > 100 µM (inactive) | > 100 µM (inactive) | > 100 µM (inactive) | > 100 µM (inactive) | > 100 µM (inactive) | > 100 µM (inactive) | > 100 µM (inactive) | > 100 µM (inactive)
5 | CN1C(=O)C(CC(=O)O)NC1=S (centres undefined) | > 100 µM (inactive) | > 100 µM (inactive) | > 100 µM (inactive) | 95.5 µM (inactive) | > 100 µM (inactive) | > 100 µM (inactive) | > 100 µM (inactive) | > 100 µM (inactive) |  | > 100 µM (inactive) | > 100 µM (inactive) | > 100 µM (inactive) | > 100 µM (inactive) | > 100 µM (inactive) | > 100 µM (inactive) | > 100 µM (inactive) | > 100 µM (inactive) | > 100 µM (inactive) | > 100 µM (inactive) | > 100 µM (inactive)
6 | CC1=NN(C2=NS(=O)(=O)c3ccccc3N2C)C(=O)C1 | 50.8 µM (inactive) | > 100 µM (inactive) | > 100 µM (inactive) | > 100 µM (inactive) | > 100 µM (inactive) | > 100 µM (inactive) | > 100 µM (inactive) | > 100 µM (inactive) | > 100 µM (inactive) | > 100 µM (inactive) | > 100 µM (inactive) | > 100 µM (inactive) | > 100 µM (inactive) |  | > 100 µM (inactive) | > 100 µM (inactive) | > 100 µM (inactive) | > 100 µM (inactive) | > 100 µM (inactive) | > 100 µM (inactive)
7 | COc1ccc(-c2ccc(C(=O)C=P(c3ccccc3)(c3ccccc3)c3ccccc3)cc2)cc1 | 12.2 µM (inactive) | 13.3 µM (inactive) | 11.4 µM (inactive) | 12.4 µM (inactive) | 23 µM (inactive) | 13.7 µM (inactive) | 15.9 µM (inactive) | 12.2 µM (inactive) | 12.9 µM (inactive) | 18.8 µM (inactive) |  | 13 µM (inactive) |  | 2.12 µM (inactive) | 25.6 µM (inactive) | 14.6 µM (inactive) | 13 µM (inactive) | 17.9 µM (inactive) | 3.41 µM (inactive) | 14.8 µM (inactive)
8 | CCn1c(SCC(=O)NNC(=S)Nc2ccc(C)cc2)nc2ccccc2c1=O | > 100 µM (inactive) | > 100 µM (inactive) |  | > 100 µM (inactive) | > 100 µM (inactive) | > 100 µM (inactive) | > 100 µM (inactive) | > 100 µM (inactive) | > 100 µM (inactive) | > 100 µM (inactive) | > 100 µM (inactive) | > 100 µM (inactive) | > 100 µM (inactive) | 70.1 µM (inactive) | > 100 µM (inactive) | > 100 µM (inactive) | > 100 µM (inactive) | > 100 µM (inactive) | > 100 µM (inactive) | > 100 µM (inactive)
9 | Cc1nn(C2OC(CO)C(O)C(F)C2O)c(=O)[nH]c1=O (centres undefined) | > 100 µM (inactive) | > 100 µM (inactive) | > 100 µM (inactive) | > 100 µM (inactive) | > 100 µM (inactive) |  | > 100 µM (inactive) | > 100 µM (inactive) | > 100 µM (inactive) | > 100 µM (inactive) | > 100 µM (inactive) | > 100 µM (inactive) | > 100 µM (inactive) | > 100 µM (inactive) | > 100 µM (inactive) | > 100 µM (inactive) | > 100 µM (inactive) |  | > 100 µM (inactive) | > 100 µM (inactive)
10 | O=C(Nc1ccc(Cl)cc1)c1cc(S(=O)(=O)N2CCNNC2=O)c(S)cc1Cl | > 100 µM (inactive) | > 100 µM (inactive) | > 100 µM (inactive) | > 100 µM (inactive) | > 100 µM (inactive) | > 100 µM (inactive) | > 100 µM (inactive) | > 100 µM (inactive) | > 100 µM (inactive) |  | 24.7 µM (inactive) | > 100 µM (inactive) | > 100 µM (inactive) | 55.1 µM (inactive) | > 100 µM (inactive) | > 100 µM (inactive) | > 100 µM (inactive) |  | > 100 µM (inactive) | > 100 µM (inactive)
11 | COc1ccc(/C=C2\CCC(CNc3ccc(OC)cc3)C2=O)cc1 (centres undefined) | 30.1 µM (inactive) | 18.7 µM (inactive) | 18.7 µM (inactive) | 11 µM (inactive) | 35.4 µM (inactive) | 10.5 µM (inactive) | 17.8 µM (inactive) | 20.8 µM (inactive) | > 100 µM (inactive) | 14.6 µM (inactive) | 5.58 µM (inactive) | 39.4 µM (inactive) | 17.7 µM (inactive) |  | > 42.6 µM (inactive) | 3.5 µM (inactive) | 18.7 µM (inactive) | 36.4 µM (inactive) | 17.4 µM (inactive) | 18.9 µM (inactive)
12 | O=C1/C(=C/Cc2ccco2)N=C(c2ccccc2)N1c1nc2c(Cl)cc(Cl)cc2s1 | 15.2 µM (inactive) | 24.6 µM (inactive) | 32.6 µM (inactive) | 27.7 µM (inactive) | 23.6 µM (inactive) | 27.7 µM (inactive) | 27.2 µM (inactive) | 20.5 µM (inactive) |  |  |  | 24.3 µM (inactive) | 36 µM (inactive) | 12.4 µM (inactive) | 34.3 µM (inactive) | 39 µM (inactive) | 27 µM (inactive) | 24.8 µM (inactive) | 22.5 µM (inactive) | 57.1 µM (inactive)
13 | Cc1c2c(n3c(nc4ccccc43)c1C#N)N(c1ccc(Cl)cc1)CC2 | > 100 µM (inactive) | > 100 µM (inactive) | > 100 µM (inactive) | > 100 µM (inactive) | > 100 µM (inactive) |  | > 100 µM (inactive) | > 100 µM (inactive) | > 100 µM (inactive) | > 100 µM (inactive) | > 100 µM (inactive) | > 100 µM (inactive) | > 100 µM (inactive) |  | > 100 µM (inactive) | > 100 µM (inactive) | > 100 µM (inactive) | > 100 µM (inactive) | > 100 µM (inactive) | > 100 µM (inactive)
14 | CON(C)C(=O)[C@H]1C[C@@]1(C)CO | > 100 µM (inactive) | > 100 µM (inactive) | > 100 µM (inactive) | > 100 µM (inactive) | > 100 µM (inactive) | > 100 µM (inactive) | > 100 µM (inactive) | > 100 µM (inactive) | > 100 µM (inactive) | > 100 µM (inactive) |  | > 100 µM (inactive) | > 100 µM (inactive) |  | > 100 µM (inactive) | > 100 µM (inactive) | > 100 µM (inactive) | > 100 µM (inactive) | > 100 µM (inactive) | > 100 µM (inactive)
15 | Cc1nc2ccccc2n1Cc1nnc(-c2ccccc2)o1 | > 100 µM (inactive) | > 100 µM (inactive) |  | 46.2 µM (inactive) | > 100 µM (inactive) | 20.6 µM (inactive) | > 100 µM (inactive) | 0.104 µM (active) |  | > 100 µM (inactive) | > 100 µM (inactive) | > 100 µM (inactive) | > 100 µM (inactive) | 75 µM (inactive) | > 100 µM (inactive) | 90.2 µM (inactive) | > 100 µM (inactive) | > 100 µM (inactive) | > 100 µM (inactive) | > 100 µM (inactive)
